This is an account of results in patent US8440819B2, “Therapeutic substituted beta-lactams” (Allergan, Inc., priority 2008, dated 2013).

By EC50 is commonly meant the concentration needed to bring the measured effect to its halfway point.

For one data set, the target named is T1, hEP3A (Homo sapiens, UniProt P43115).
T1 sequence (P43115 1-390): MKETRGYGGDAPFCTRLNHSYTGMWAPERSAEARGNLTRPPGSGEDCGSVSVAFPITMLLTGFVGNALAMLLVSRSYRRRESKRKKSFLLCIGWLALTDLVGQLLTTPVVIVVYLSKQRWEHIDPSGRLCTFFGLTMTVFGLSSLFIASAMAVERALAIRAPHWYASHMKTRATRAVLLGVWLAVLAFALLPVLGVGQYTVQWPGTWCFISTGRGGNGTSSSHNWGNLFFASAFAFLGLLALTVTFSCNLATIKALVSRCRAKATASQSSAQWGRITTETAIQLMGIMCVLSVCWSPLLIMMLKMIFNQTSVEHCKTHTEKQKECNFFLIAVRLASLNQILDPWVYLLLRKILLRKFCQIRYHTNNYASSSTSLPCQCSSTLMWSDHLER
As to the kind of experiment: Other receptors functional EC50, hEP3A. Type of data set: cell-based. The text has this:
(§1) U.S. patent application Ser. No. 11/553,143, filed on Oct. 26, 2006, incorporated by reference herein, describes the methods used to obtain the in vitro data in Table 1 below.

Data set [1] deals with T2, EP2 (Homo sapiens, UniProt P43116). As to the kind of experiment: EP2 cAMP. The format is cell-based.
Description: as §1

Data set [2] deals with T3, EP4 (Homo sapiens, UniProt P35408). Briefly: EP4 binding (Ki). As to conditions: read-out: EP4 data Kl.
Description: as §1

Data set [3] addresses T2, EP2. Briefly: EP2 flipr. Type of data set: cell-based.
Description: as §1

Another data set has as its target T4, hDP (Homo sapiens, UniProt Q13258).
T4 sequence (Q13258 1-359): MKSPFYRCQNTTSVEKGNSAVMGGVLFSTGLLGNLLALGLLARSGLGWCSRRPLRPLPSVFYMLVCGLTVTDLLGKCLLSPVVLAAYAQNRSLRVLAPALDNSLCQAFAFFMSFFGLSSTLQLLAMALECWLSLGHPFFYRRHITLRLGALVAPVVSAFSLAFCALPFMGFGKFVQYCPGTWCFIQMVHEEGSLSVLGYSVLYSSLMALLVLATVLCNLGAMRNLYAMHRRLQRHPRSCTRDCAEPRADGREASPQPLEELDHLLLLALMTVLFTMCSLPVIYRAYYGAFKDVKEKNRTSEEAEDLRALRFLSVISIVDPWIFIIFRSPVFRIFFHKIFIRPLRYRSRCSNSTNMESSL
Briefly: Other receptors functional EC50, hDP. The format is cell-based.
Description: as §1

In data set [4] the target is T2, EP2. Briefly: EP2 binding (Ki).
Description: as §1

Data set [5] concerns the target T3, EP4. As to the kind of experiment: EP4 flipr. The format is cell-based.
Description: as §1

In data set [6] the test system is laser-induced hypertensive monkeys. As to the kind of experiment: Intraocular pressure in laser-induced hypertensive monkeys. Type of data set: in vivo, monkey. To be noted: 0.01%, one single day dose, at 24 h. The protocol:
(§2) U.S. Pat. No. 7,091,231 describes the methods used to carry out the tests reported below.
(§3) Isopropyl (5-(3-((2S)-1-(4-(1-hydroxyhexyl)phenyl)-4-oxoazetidin-2-yl)propyl)thiophene-2-carboxylate (12) was tested in normotensive dogs at 0.01%, dosing once daily for 5 days. The maximum intraocular pressure (IOP) decrease from baseline was 3.7 mmHg (25%) at 6 h; the maximum ocular surface hyperemia (OSH) score was 1.7 at 50 h. This compound was also tested in laser-induced hypertensive monkeys, using one single day dose. At 0.01%, the maximum IOP decrease from baseline was 12.6 mmHg (35%) at 24 h.

For a further data set, the system named is normotensive dogs. Briefly: Intraocular pressure and ocular surface hyperemia in normotensive dogs. The format is in vivo, dog. To be noted: 0.01%, once daily for 5 days. On the procedure:
as §2, §3

T2 sequence (P43116 whole entry): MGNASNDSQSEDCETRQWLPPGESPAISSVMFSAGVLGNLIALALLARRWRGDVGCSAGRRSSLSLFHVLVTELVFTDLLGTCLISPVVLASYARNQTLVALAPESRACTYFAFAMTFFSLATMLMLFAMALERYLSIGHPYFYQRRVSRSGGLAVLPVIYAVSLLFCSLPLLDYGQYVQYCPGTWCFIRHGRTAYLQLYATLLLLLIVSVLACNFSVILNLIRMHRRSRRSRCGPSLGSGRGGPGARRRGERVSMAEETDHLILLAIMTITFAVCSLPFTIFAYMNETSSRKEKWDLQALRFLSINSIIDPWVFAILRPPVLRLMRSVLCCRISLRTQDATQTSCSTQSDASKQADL
T3 sequence (P35408 whole entry): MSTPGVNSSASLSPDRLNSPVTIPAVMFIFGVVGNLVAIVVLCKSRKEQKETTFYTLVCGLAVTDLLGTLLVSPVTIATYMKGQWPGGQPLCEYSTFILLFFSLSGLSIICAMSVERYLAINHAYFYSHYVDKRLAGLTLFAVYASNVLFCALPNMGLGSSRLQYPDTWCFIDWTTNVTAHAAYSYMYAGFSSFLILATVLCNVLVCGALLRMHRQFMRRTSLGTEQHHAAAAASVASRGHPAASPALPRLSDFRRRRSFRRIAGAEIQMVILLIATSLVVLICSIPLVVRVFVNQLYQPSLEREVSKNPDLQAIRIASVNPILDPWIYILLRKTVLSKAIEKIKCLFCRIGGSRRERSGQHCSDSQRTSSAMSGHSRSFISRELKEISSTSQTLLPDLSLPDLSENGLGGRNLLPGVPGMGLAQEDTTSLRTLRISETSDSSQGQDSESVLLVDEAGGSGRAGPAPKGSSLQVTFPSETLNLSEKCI

In the case of `CCCCCC(O)c1ccc(N2C(=O)C[C@@H]2CCCc2ccc(C(=O)O)s2)cc1` (mixture of isomers) [compound 11], the EC50 on hEP3A was 42 nM; on EP2 [1], 0.4 nM; on EP2 [3], 1.1 nM; on hDP, 4740 nM; on EP4 [5], over 10000 nM. The results for the Ki at EP4 [2] and on EP2 [4] were 1450 nM and 10 nM, respectively.

For `CCCCCC(O)c1ccc(N2C(=O)C[C@@H]2CCCc2ccc(C(=O)OC(C)C)s2)cc1` (stereo partly drawn) [compound 12], in data set [6], the “maximum IOP decrease from baseline” value is 12.6 mmHg and the “maximum IOP decrease from baseline, percent” value worked out at 35%. In the data set on normotensive dogs (at 6 h), the “maximum intraocular pressure (IOP) decrease from baseline” value is 3.7 mmHg and the “maximum intraocular pressure (IOP) decrease from baseline, percent” value came to 25%. Further, the “maximum ocular surface hyperemia (OSH) score” value with normotensive dogs (at 50 h) came out at 1.7.
